# In ChEMBL document CHEMBL1149881, “Syntheses of 4,6'-epoxymorphinan derivatives and their pharmacologies” (Bioorg Med Chem, 2008):
# The source made the active and inactive calls. The rule behind the calls is not given here.
# How the values were obtained:
# Mus musculus [1] = experiment: Antinociceptive activity against sc dosed ICR mouse by tail flick method; assay type: functional, organism-based
# Mu-type opioid receptor = Mu-type opioid receptor (Mus musculus, UniProt P42866); experiment: Displacement of [3H]DAMGO from mu opioid receptor in ICR mouse whole brain
# [2] = target: Mu-type opioid receptor (Mus musculus) (UniProt P42866); experiment: Inhibition of mu opioid receptor-mediated DAMGO induced activation of G-Protein in ICR mouse brain at 0.1 to 1 uM by [35S]GTPgammaS binding; assay type: functional
# Mus musculus [3] = experiment: Antinociceptive activity against sc dosed ICR mouse by hot plate method; assay type: functional, organism-based
# [4] = target: Mu-type opioid receptor (Mus musculus) (UniProt P42866); experiment: Activation of mu opioid receptor-mediated G-protein activation in ICR mouse whole brain at 10 uM by [35S]GTPgammaS binding in presence of Beta-FNA; assay type: functional
# [5] = target: Delta-type opioid receptor (Mus musculus, UniProt P32300); experiment: Displacement of [3H]DPDPE from delta opioid receptor in ICR mouse whole brain
# [6] = target: Kappa-type opioid receptor (Cavia porcellus, UniProt P41144); experiment: Displacement of [3H]U69593 from kappa opioid receptor in guinea pig cerebellum
# [7] = target: Delta-type opioid receptor (Mus musculus) (UniProt P32300); experiment: Inhibition of delta opioid receptor-mediated SNC80 induced activation of G-Protein in ICR mouse brain at 0.1 to 1 uM by [35S]GTPgammaS binding; assay type: functional, tissue-based
# [8] = target: Kappa-type opioid receptor (Cavia porcellus) (UniProt P41144); experiment: Inhibition of kappa opioid receptor-mediated U50488 induced activation of G-Protein in guinea pig cerebellum at 0.1 to 1 uM by [35S]GTPgammaS binding; assay type: functional, tissue-based
# Sequence of Kappa-type opioid receptor (Cavia porcellus) (P41144 whole entry): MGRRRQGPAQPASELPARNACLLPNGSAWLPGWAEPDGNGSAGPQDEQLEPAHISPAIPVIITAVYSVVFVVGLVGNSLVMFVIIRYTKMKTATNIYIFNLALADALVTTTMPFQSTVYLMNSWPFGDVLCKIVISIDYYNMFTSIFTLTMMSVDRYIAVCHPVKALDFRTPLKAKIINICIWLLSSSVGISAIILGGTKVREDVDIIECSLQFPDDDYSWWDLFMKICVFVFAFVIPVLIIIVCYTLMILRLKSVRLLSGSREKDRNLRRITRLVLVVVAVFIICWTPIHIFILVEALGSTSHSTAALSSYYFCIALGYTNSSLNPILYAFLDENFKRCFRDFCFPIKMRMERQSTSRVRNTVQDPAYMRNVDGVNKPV
# Sequence of Mu-type opioid receptor (Mus musculus) (P42866 whole entry): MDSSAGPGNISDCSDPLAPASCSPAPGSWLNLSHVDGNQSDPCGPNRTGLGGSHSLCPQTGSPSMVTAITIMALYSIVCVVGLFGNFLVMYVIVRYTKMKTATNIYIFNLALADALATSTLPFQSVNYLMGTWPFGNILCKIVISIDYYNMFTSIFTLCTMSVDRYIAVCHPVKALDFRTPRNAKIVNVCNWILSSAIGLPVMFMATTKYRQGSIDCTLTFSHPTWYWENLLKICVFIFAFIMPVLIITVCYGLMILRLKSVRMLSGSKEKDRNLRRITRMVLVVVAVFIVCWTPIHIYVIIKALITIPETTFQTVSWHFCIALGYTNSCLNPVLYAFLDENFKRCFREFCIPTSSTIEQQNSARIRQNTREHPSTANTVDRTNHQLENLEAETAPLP
# Sequence of Delta-type opioid receptor (P32300 whole entry): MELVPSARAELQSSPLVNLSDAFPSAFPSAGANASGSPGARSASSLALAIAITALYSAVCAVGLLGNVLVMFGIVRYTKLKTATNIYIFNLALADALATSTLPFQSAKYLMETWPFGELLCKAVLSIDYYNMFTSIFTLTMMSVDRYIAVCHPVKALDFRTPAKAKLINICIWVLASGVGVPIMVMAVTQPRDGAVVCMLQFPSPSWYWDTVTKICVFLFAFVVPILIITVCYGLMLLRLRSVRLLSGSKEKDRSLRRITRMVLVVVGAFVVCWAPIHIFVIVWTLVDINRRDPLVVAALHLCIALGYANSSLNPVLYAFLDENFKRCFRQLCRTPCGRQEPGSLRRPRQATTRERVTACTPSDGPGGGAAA
# Sequence of Kappa-type opioid receptor (P41144 whole entry): as the sequence (P41144 whole entry) above
# Sequence of Mu-type opioid receptor (P42866 whole entry): as the sequence (P42866 whole entry) above
# Sequence of Delta-type opioid receptor (Mus musculus) (P32300 whole entry): as the sequence (P32300 whole entry) above
SMILES,Activity (Mus musculus [1]),IC50 (Mu-type opioid receptor) [nM],Activity [2],Activity (Mus musculus [3]),Activity [4],IC50 [5] [nM],IC50 [6] [nM],Activity [7],Activity [8]
COc1ccc2c3c1OC[C@H]1CC[C@]4(O)[C@H](C2)N(C)CC[C@@]34C1,Dose-dependent effect,183,Active,Dose-dependent effect,inactive,< 500,< 500,–,–
Oc1ccc2c3c1OC[C@H]1CC[C@]4(O)[C@H](C2)N(CC2CC2)CC[C@@]34C1,–,1.21,Active,–,–,57.3,0.98,Active,Active
